The first test has as its system Vcap cells. The experiment in a line: Dihydrotestosterone (DHT) mediated XTT cell proliferation assay for screening AR antagonists using Vcap cells. It is filed as cell-based. The following applies: Homo sapiens, 240 h, in the presence of 0.2 nM DHT, XTT readout on Day 10, IC50 curves from 8 concentrations. The procedure, abridged: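 VCaP cells, starved 5 days in phenol red-free DMEM with 8% charcoal-stripped serum, were plated and treated on Day 4 with compound (0.1 nM-30 μM, 8 concentrations) plus 0.2 nM DHT, redosed Day 7. On Day 10 viability was read by XTT at 465 nm; IC50 from sigmoidal dose-response fit.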
Take `Cc1cc(N2C(=O)N(c3ccc(C#N)c(C(F)(F)F)c3)[C@H]3COCC[C@@H]32)ccc1C(N)=O` (racemic) [Example 79, Trans-4-(3-(4-cyano-3-(trifluoromethyl)phenyl)-2-oxohexahydropyrano[3,4-c]imidazol-1(6H)-yl)-2-methylbenzamide (±)]: the IC50 was 4330 nM. The same measure, in the same setting: with `CNc1ccc(N2C(=O)N(c3ccc(C#N)c(C(F)(F)F)c3)[C@@H]3CCCC[C@H]32)cc1F` (racemic) [Example 14, Trans-4-(3-(3-fluoro-4-(methylamino)phenyl)-2-oxooctahydro-1H-benzo[d]im-idazol-1-yl)-2-(trifluoromethyl)benzonitrile (±)] the figure was 715 nM; with `CN1CCC(ONC(=O)c2ccc(N3C(=O)N(c4ccc(C#N)c(C(F)(F)F)c4)[C@@H]4CCCC[C@H]43)cc2F)CC1` (racemic) [Example 28, Trans 4-(3-(4-cyano-3-(trifluoromethyl)phenyl)-2-oxooctahydro-1H-benzo[c]im-idazol-1-yl)-2-fluoro-N-((1-methylpiperidin-4-yl)oxy)benzamide (±)], 148 nM; with `N#Cc1ccc(N2C(=O)N(c3ccc(C(=O)NOCC4CCCO4)c(F)c3)[C@@H]3CCCC[C@H]32)cc1C(F)(F)F` (mixture of isomers) [Example 27, Trans 4-(3-(4-cyano-3-(trifluoromethyl)phenyl)-2-oxooctahydro-1H-benzo[c]im-idazol-1-yl)-2-fluoro-N-((tetrahydrofuran-2-yl)methoxy)benzamide (±)], 196 nM. For the compound `CCOC(=O)c1ccc(N2C(=O)N(c3ccc(C#N)c(C(F)(F)F)c3)[C@@H]3CCCC[C@H]32)cc1F` (racemic) [Example 6, Trans-ethyl-4-(3-(4-cyano-3-trifluoromethyl)phenyl)-2-oxooctahydro-1H-benzo[d]imidazol-1-yl)-2-fluorobenzoate (±)], the IC50 is greater than 10000 nM. `Cc1cc(N2C(=O)N(c3ccc(C#N)c(C(F)(F)F)c3)[C@H]3CCCC[C@@H]32)ccc1C(N)=O` [Example 70, 4-((3aS,7aS)-3-(4-cyano-3-(trifluoromethyl)phenyl)-2-oxooctahydro-1H-benzo[d]imidazol-1-yl)-2-methylbenzamide]: the IC50 is 733 nM. Still for that read-out and setting: next, `N#Cc1ccc(N2C(=O)N(c3ccc(Cl)cc3)[C@H]3CCCC[C@@H]32)cc1C(F)(F)F` [Example 61, 4-((3aS,7aS)-3-(4-chlorophenyl)-2-oxooctahydro-1H-benzo[d]imidazol-1-yl)-2-(trifluoromethyl)benzonitrile]: 348 nM; `CNC(=O)c1cc(N2C(=O)N(c3ccc(C#N)c(C(F)(F)F)c3)[C@H]3CCCC[C@@H]32)ccn1` [Example 56, 4-((3aS,7aS)-3-(4-cyano-3-(trifluoromethyl)phenyl)-2-oxooctahydro-1H-benzo[d]imidazol-1-yl)-N-methylpicolinamide]: 1820 nM; `CC(=O)c1ccc(N2C(=O)N(c3ccc(C#N)c(C(F)(F)F)c3)[C@H]3CCCC[C@@H]32)cc1F` [Example 45, 4-((3aS,7aS)-3-(4-acetyl-3-fluorophenyl)-2-oxooctahydro-1H-benzo[d]imidazol-1-yl)-2-(trifluoromethyl)benzonitrile]: 1020 nM. With `N#Cc1ccc(N2C(=O)N(c3ccc(Cl)cc3)[C@@H]3CCCC[C@H]32)cc1C(F)(F)F` (racemic) [Example 60, Trans-4-(3-(4-chlorophenyl)-2-oxooctahydro-1H-benzo[d]imidazol-1-yl)-2-(trifluoromethyl)benzonitrile (±)], the IC50 worked out at 397 nM.

In the case of `N#Cc1ccc(N2C(=O)N(c3ccncc3)[C@@H]3CCCC[C@H]32)cc1C(F)(F)F` (racemic) [Example 4, Trans-4-(2-oxo-3-(pyridin-4-yl)octahydro-1H-benzo[d]imidazol-1-yl)-2-(trifluoromethyl)benzonitrile (±)], the half-inhibitory concentration (IC50) was found to be 1040 nM.

The same test, now with this note: in the presence of 0.2 nM DHT, XTT readout on Day 10, IC50 curves from 8 concentrations.
Turning to `CNC(=O)c1ccc(N2C(=O)N(c3ccc(C#N)c(C(F)(F)F)c3)C3CCC(O)CC32)cc1F` (single isomer, unassigned) [Example 82a, Trans-4-(3-(4-cyano-3-(trifluoromethyl)phenyl)-6-hydroxy-2-oxooctahydro-1H-benzo[d]imidazol-1-yl)-2-fluoro-N-methylbenzamide (+)], the IC50 is greater than 10000 nM. In the case of `CNC(=O)c1ccc(N2C(=O)N(c3ccc(C#N)c(C(F)(F)F)c3)[C@@H]3CC=CC[C@H]32)cc1F` (relative stereo) [Example 83a], the IC50 was greater than 10000 nM. The same measure, in the same setting: next, `N#Cc1ccc(N2C(=O)N(c3ccc(C#N)c(C(F)(F)F)c3)[C@@H]3CCCC[C@H]32)cc1C(F)(F)F` (relative stereo) [Example 2a, Trans-4,4′-(2-oxohexahydro-1H-benzo[d]imidazole-1,3(2H)-diyl)bis(2-(trifluoromethyl)benzonitrile) (−)]: 231 nM.

As a reminder, the IC50 is the concentration at which inhibition is half-maximal.
